# From paper PMC2749987 (European journal of pharmacology, 2009)
# Read-outs that look alike come from different tables or passages of the source.
# Tests used:
# human 5-HT2C receptor [1] = molecular target: T1, human 5-HT2C receptor (Homo sapiens, UniProt P28335); type: binding; conditions: for nH (Hill slope), 5-HT2C binding: competition binding
# T1 sequence (P28335 33-458): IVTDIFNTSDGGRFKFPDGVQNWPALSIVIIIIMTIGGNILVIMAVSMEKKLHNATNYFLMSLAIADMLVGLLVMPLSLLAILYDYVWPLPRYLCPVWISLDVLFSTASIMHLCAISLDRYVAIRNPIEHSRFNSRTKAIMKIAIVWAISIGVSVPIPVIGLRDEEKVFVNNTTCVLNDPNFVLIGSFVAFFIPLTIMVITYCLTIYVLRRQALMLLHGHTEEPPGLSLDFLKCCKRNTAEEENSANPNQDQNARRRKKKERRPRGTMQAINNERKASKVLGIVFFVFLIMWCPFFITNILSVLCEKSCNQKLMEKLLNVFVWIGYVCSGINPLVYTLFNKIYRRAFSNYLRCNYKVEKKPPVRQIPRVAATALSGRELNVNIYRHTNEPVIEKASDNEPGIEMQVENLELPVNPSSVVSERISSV
# human 5-HT2A receptor [2] = molecular target: T2, human 5-HT2A receptor (Homo sapiens, UniProt P28223); type: binding; conditions: for nH (Hill slope), 5-HT2A binding: competition binding
# T2 sequence (P28223 whole entry): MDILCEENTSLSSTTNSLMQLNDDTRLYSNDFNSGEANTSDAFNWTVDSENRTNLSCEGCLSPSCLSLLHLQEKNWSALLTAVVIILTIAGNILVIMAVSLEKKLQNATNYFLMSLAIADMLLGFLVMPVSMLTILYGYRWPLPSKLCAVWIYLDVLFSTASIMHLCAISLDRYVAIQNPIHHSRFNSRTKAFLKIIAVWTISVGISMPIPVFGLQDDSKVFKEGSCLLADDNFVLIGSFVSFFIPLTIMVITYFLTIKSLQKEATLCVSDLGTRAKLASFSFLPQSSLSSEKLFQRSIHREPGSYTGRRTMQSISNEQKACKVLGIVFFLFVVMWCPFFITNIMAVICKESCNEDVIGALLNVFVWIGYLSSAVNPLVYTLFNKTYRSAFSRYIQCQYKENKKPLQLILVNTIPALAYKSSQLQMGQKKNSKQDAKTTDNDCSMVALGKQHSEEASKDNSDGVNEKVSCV
# human 5-HT2B receptor [3] = molecular target: T3, human 5-HT2B receptor (Homo sapiens, UniProt P41595)
# T3 sequence (P41595 whole entry): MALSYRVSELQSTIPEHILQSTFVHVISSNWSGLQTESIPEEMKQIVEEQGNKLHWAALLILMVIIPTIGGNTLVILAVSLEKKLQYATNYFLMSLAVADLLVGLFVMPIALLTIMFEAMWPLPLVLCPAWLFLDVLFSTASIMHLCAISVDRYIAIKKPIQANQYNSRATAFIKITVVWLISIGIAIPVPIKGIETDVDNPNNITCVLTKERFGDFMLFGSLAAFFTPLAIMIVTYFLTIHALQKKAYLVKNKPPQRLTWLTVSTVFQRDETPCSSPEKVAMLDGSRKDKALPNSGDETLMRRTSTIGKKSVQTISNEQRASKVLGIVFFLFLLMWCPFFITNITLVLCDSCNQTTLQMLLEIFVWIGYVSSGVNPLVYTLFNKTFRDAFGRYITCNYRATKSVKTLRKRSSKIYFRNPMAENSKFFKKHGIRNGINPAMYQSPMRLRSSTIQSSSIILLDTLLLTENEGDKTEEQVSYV
# human 5-HT2A receptor [4] = molecular target: T2, human 5-HT2A receptor; type: cell-based
# mice = conditions: intraperitoneal single-dose, ref Rowland et al., 2008, cited from earlier work
# human 5-HT2B receptor [5] = molecular target: T3, human 5-HT2B receptor; type: binding; conditions: for nH (Hill slope), 5-HT2B binding: competition binding
# human 5-HT2C receptor [6] = molecular target: T1, human 5-HT2C receptor; type: cell-based
# 5-HT2A = conditions: ref Knight et al., 2004; cited from earlier work
# 5-HT2A receptors [7] = conditions: ref Jensen, 2006, Smith et al., Thomsen et al., 2008; cited from earlier work
# 5-HT2B receptors [8] = conditions: read-out: affinity at 5-HT2B receptors Ki, ref Jensen, 2006, Smith et al., Thomsen et al., 2008; cited from earlier work
# 5-HT2C receptors = conditions: ref Jensen, 2006, Smith et al., Thomsen et al., 2008; cited from earlier work
# 5-HT2B receptors [9] = conditions: ref Jensen, 2006, Smith et al., Thomsen et al., 2008; cited from earlier work
# rats = conditions: oral single-dose, ref Thomsen et al., 2008, cited from earlier work
# 5-HT2A receptors [10] = conditions: read-out: affinity at 5-HT2A receptors Ki, ref Jensen, 2006, Smith et al., Thomsen et al., 2008; cited from earlier work
# [11] = read-out: 5-HT2A Ki ± SEM, competition vs 1.0 nM [3H]-ketanserin
# [12] = read-out: 5-HT2B Ki ± SEM, competition vs 5.0 nM [3H]-mesulergine
smiles,measurement,setting,value
"CN(C)[C@@H]1Cc2ccccc2[C@@H](c2ccccc2)C1 (relative stereo) [(−)-trans-PAT, (1R,3S)-(−)-trans-1-phenyl-3-dimethylamino-1,2,3,4-tetrahydronaphthalene]",difference in affinity at 5-HT2A and 5-HT2C receptors,human 5-HT2C receptor [1],10 times
same,"nH (Hill slope), 5-HT2C binding",human 5-HT2C receptor [1],0.9 ± 0.1
same,"nH (Hill slope), 5-HT2A binding",human 5-HT2A receptor [2],1.1 ± 0.1
same,Ki,human 5-HT2A receptor [2]; [11],410 ± 38 nM
same,Ki,"human 5-HT2A receptor [2]; read-out: 5-HT2A receptor affinity Ki, as quoted in text from Table",~400 nM
same,"nH, inverse agonism at 5-HT2B receptors",human 5-HT2B receptor [3],0.87 ± 0.23
same,stimulation of PLC/[3H]-IP formation in cells expressing 5-HT2B receptors,human 5-HT2B receptor [3],does not stimulate
same,(maximal) inhibition of constitutive signaling at 5-HT2B receptors,human 5-HT2B receptor [3]; 10 μM,35.3 ± 2.00%
same,"pA2, 5-HT2B receptors",human 5-HT2B receptor [3]; vs serotonin,5.8
same,"nH, inverse agonism at 5-HT2A receptors",human 5-HT2A receptor [4],0.85 ± 0.01
same,stimulation of PLC/[3H]-IP formation in cells expressing 5-HT2A receptors,human 5-HT2A receptor [4],does not stimulate
same,(maximal) inhibition of constitutive signaling at 5-HT2A receptors,human 5-HT2A receptor [4]; 10 μM,57.6 ± 5.66%
same,"pA2, 5-HT2A receptors",human 5-HT2A receptor [4]; vs serotonin,6.3
same,maximal reduction of food intake,mice; at 10 mg/kg,about 75%
same,"ED50, reduction of food intake",mice,4.2 mg/kg
same,"nH (Hill slope), 5-HT2B binding",human 5-HT2B receptor [5],1.0 ± 0.001
same,Ki,human 5-HT2B receptor [5]; [12],1200 nM
same,Ki,"human 5-HT2B receptor [5]; read-out: 5-HT2B receptor affinity Ki, as quoted in text from Table",~1200 nM
same,potency (EC50) to activate 5-HT2C receptors greater than 5-HT2C affinity (Ki),human 5-HT2C receptor [6],about 2 times
same,"Emax, 5-HT2C activation",human 5-HT2C receptor [6]; CHO cells,464 ± 10.8 % basal control activity
same,"nH, 5-HT2C activation",human 5-HT2C receptor [6]; CHO cells,0.75 ± 0.13
CN(C)[C@H]1Cc2ccccc2[C@@H](c2ccccc2)C1 [(+)-cis-PAT],"nH (Hill slope), 5-HT2C binding",human 5-HT2C receptor [1],0.9 ± 0.1
same,"nH (Hill slope), 5-HT2A binding",human 5-HT2A receptor [2],0.9 ± 0.2
same,Ki,human 5-HT2A receptor [2]; [11],780 ± 2 nM
same,"nH (Hill slope), 5-HT2B binding",human 5-HT2B receptor [5],~1.0
same,Ki,human 5-HT2B receptor [5]; [12],~5000 nM
CN(C)[C@@H]1Cc2ccccc2[C@H](c2ccccc2)C1 [(−)-cis-PAT],"nH (Hill slope), 5-HT2C binding",human 5-HT2C receptor [1],0.90 ± 0.04
same,"nH (Hill slope), 5-HT2A binding",human 5-HT2A receptor [2],1.0 ± 0.1
same,Ki,human 5-HT2A receptor [2]; [11],1500 ± 2 nM
same,"nH (Hill slope), 5-HT2B binding",human 5-HT2B receptor [5],~1.0
same,Ki,human 5-HT2B receptor [5]; [12],~10000 nM
COc1cccc([C@H](O)C2CCN(CCc3ccc(F)cc3)CC2)c1OC [M100907],5-HT2A selectivity over 5-HT2B receptors,5-HT2A,500 times
same,5-HT2A selectivity over 5-HT2C receptors,5-HT2A,15 times
"[3H]C([3H])(N1CCC(C(=O)c2ccc(F)cc2)CC1)C([3H])([3H])n1c(=O)[nH]c2ccccc2c1=O [[^3H]-Ketanserin, reference compound]","Bmax, 5-HT2A receptors",human 5-HT2A receptor [2]; saturation binding,1.73 ± 0.11 pmol/mg protein
C[C@H]1CNCCc2ccc(Cl)cc21 [lorcaserin],"efficacy, activation of 5-HT2A receptors",5-HT2A receptors [7],75%
same,Ki,5-HT2B receptors [8],~174 nM
same,affinity for 5-HT2C receptors higher than at 5-HT2A receptors,5-HT2C receptors,about 7.5 times
same,affinity for human 5-HT2C over 5-HT2B receptors,5-HT2C receptors,about 12 times
same,"efficacy, activation of 5-HT2B receptors",5-HT2B receptors [9],100%
same,maximal reduction of food intake,rats; at 24 mg/kg,about 60%
same,"ED50, reduction of food intake",rats,18 mg/kg
same,Ki,5-HT2A receptors [10],~112 nM
